According to patent US8846699B2, “Quinazoline derivatives as a multiplex inhibitor and method for the preparation thereof” (Hanmi Pharm. Co., Ltd., priority 2005, dated 2014):

Experiments:
[1] = target: EGFR1 (HER-1) (Homo sapiens (Human), UniProt P00533); experiment: EGFR1 (HER-1) enzyme assay, fluorescence polarization; format: biochemical; details: 100 μM ATP, poly(Glu, Tyr) substrate
[2] = system: skin cancer cell line, A431; experiment: Inhibitory effect on growth of cancer cell line A431, SRB; format: cell-based; details: overexpressed EGFR1 (HER-1)
Method in brief: (§1)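 Growth inhibition was measured by sulforhodamine-B staining (absorbance 570 nm) of TCA-fixed cells after 72 h compound exposure at 37 °C, 5% CO2. Test concentrations ran from 10 μM in 10-fold steps to 10^−4, with DMSO below 1%, in 10% FBS DMEM.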

[3] = system: colon and rectal cancer cell line, SW-620; experiment: Inhibitory effect on growth of cancer cell line SW-620, SRB; format: cell-based; details: not having overexpressed EGFR and EGFR2
Method in brief: as §1

[4] = system: Human Umbilical Vein Endothelial Cell (HUVEC); experiment: Inhibitory effect on growth of human umbilical vein endothelial cell (HUVEC), MTS; format: cell-based; details: 10 ng/ml VEGF, absorbance 490 nm
[5] = system: breast cancer cell line, SK-Br3; experiment: Inhibitory effect on growth of cancer cell line SK-Br3, SRB; format: cell-based; details: overexpressed EGFR2 (HER-2)
Method in brief: as §1

[6] = target: VEGFR2 (KDR) (Homo sapiens (Human), UniProt P35968); experiment: VEGFR2 (KDR) enzyme assay, fluorescence polarization; format: biochemical; details: 5 μM ATP, poly(Glu, Tyr) substrate
Method in brief: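 Buffer: 20 mM HEPES pH 7.4 with 5 mM MgCl2, 2 mM MnCl2 and 50 μM Na3VO4. Compound (0.0001–10 μM) was premixed 10 min with VEGFR2 (200 ng/10 μl), then poly(Glu,Tyr) substrate (10 ng/ml) and 5 μM ATP were added for 1 h at room temperature. EDTA-quenched samples were read by FP after 30 min with antibody and tracer.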

Chain of VEGFR2 (KDR) (P35968 20-1356): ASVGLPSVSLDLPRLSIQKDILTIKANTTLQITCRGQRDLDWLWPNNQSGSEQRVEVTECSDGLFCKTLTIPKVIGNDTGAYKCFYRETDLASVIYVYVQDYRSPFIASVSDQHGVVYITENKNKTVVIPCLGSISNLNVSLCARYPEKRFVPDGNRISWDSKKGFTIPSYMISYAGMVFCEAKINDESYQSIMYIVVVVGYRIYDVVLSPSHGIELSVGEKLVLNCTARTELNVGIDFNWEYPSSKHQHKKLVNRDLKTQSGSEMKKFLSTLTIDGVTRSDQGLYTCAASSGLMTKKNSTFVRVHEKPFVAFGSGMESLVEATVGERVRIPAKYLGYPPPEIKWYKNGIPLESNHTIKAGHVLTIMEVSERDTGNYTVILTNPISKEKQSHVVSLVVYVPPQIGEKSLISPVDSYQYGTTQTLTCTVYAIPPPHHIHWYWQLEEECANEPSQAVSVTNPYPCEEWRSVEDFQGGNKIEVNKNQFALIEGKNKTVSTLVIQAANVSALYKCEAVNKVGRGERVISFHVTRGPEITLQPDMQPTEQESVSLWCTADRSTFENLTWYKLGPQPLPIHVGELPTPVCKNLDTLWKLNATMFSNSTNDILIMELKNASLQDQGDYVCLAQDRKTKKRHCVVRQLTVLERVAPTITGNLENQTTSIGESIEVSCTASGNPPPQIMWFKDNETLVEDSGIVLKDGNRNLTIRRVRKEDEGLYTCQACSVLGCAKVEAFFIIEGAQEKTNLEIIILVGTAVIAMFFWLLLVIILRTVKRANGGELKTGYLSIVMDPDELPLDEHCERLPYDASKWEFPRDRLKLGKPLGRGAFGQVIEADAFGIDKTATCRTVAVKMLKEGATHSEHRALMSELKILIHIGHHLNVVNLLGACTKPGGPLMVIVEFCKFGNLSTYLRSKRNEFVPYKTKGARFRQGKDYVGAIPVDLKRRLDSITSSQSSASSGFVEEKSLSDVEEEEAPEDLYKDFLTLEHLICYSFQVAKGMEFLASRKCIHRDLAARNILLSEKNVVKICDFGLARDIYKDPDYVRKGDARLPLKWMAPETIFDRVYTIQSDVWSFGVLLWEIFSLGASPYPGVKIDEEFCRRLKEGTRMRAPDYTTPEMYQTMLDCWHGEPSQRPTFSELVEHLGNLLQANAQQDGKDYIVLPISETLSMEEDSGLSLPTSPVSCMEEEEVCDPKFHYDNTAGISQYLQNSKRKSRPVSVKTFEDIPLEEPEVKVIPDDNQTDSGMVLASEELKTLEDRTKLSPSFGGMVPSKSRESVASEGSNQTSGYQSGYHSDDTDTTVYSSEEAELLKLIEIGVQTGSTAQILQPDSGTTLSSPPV

Compound	IC50 [1] [nM]	IC50 ([2]; Homo sapiens, A-431, 72 h) [nM]	IC50 ([3]; Homo sapiens, 72 h) [nM]	IC50 ([5]; Homo sapiens, SK-BR-3, 72 h) [nM]	IC50 [6] [nM]	IC50 ([4]; Homo sapiens, 96 h) [nM]	IC50 ([2]; 72 hours) [nM]	IC50 ([3]; 72 hours) [nM]	IC50 ([4]; 96 hours) [nM]	IC50 ([5]; 72 hours) [nM]
C=CC(=O)Nc1cc2c(Nc3ccc(Br)cc3F)ncnc2cc1OCCNC(=O)OC [Example 63, {2-[6-acryloylamino-4-(4-bromo-2-fluoro-phenylamino)-quinazolin-7-yloxy]-ethyl}-carbamic acid methylester]	158	140	10000	198	84	102	–	–	–	–
C=CC(=O)Nc1cc2c(Nc3ccc(F)cc3F)ncnc2cc1OCCNC(=O)CN(C)C [Example 68, N-[4-(2,4-difluorophenylamino)-7-{2-[2-(dimethylamino)-acetylamino]-ethoxy}-quinazolin-6-yl]-acrylamide]	156	265	725	564	687	682	–	–	–	–
N-{2-[6-acryloylamino-4-(4-bromo-3-chloro-2-fluoro-phenylamino)-quinazolin-7-yloxy]-ethyl}-4-dimethylamino-butylamide [Example 148]	28	–	–	–	206	–	30	2320	348	40
C=CC(=O)Nc1cc2c(Nc3ccc(Br)cc3F)ncnc2cc1OCCCNC [Example 17, N-[4-(4-bromo-2-fluoro-phenylamino)-7-(3-methylamino-propoxy)-quinazolin-6-yl]-acrylamide]	3	11	2020	64	154	87	–	–	–	–
C=CC(=O)Nc1cc2c(Nc3ccc(Br)cc3F)ncnc2cc1OCCNC(=O)CN [Example 57, N-[7-[2-(2-amino-acetylamino)-ethoxy]-4-(4-bromo-2-fluoro-phenylamino)-quinazolin-6-yl]-acrylamide]	89	91	9570	781	235	379	–	–	–	–
C=CC(=O)Nc1cc2c(Nc3ccc(Br)c(Cl)c3F)ncnc2cc1OC[C@H](C)NC(=O)CN(C)C [Example 163, (S)—N-4-(4-bromo-3-chloro-2-fluoro-phenylamino)-7-[2-(2-dimethylamino-acetylamino)-propoxy]-quinazolin-6-yl-acrylamide]	12	–	–	–	722	–	18	10000	735	45
C=CC(=O)Nc1cc2c(Nc3ccc(Br)cc3F)ncnc2cc1OCCNC(=O)CC [Example 27, N-[4-(4-bromo-2-fluoro-phenylamino)-7-(2-propionylamino-ethoxy)-quinazolin-6-yl]-acrylamide]	3	30	9560	50	250	96	–	–	–	–
C=CC(=O)Nc1cc2c(Nc3ccc(Br)cc3F)ncnc2cc1OCCNC(=O)NC(C)C [Example 37, N-{4-(4-bromo-2-fluoro-phenylamino)-7-[2-(3-isopropyl-ureido)-ethoxy]-quinazolin-6-yl}-acrylamide]	36	31	4540	65	895	682	–	–	–	–
C=CC(=O)Nc1cc2c(Nc3ccc(Br)cc3F)ncnc2cc1OCC(C)NC(=O)CN(C)C (stereo not drawn) [Example 153]	172	–	–	–	433	–	160	9570	521	207
C=CC(=O)Nc1cc2c(Nc3ccc(Br)cc3F)ncnc2cc1OCCNC [Example 30, N-[4-(4-bromo-2-fluoro-phenylamino)-7-(2-methylamino-ethoxy)-quinazolin-6-yl]-acrylamide]	96	127	4530	581	513	964	–	–	–	–
C=CC(=O)Nc1cc2c(Nc3ccc(Br)cc3F)ncnc2cc1OCC(=O)NCCN(CC)CC [Example 65, N-{4-(4-bromo-2-fluoro-phenylamino)-7-[(2-diethylamino-ethylcarbamoyl)-methoxy]-quinazolin-6-yl}-acrylamide]	652	596	10000	694	954	964	–	–	–	–
C=CC(=O)Nc1cc2c(Nc3ccc(Br)cc3F)ncnc2cc1OCCNC(=O)C(F)F [Example 22, N-{4-(4-bromo-2-fluoro-phenylamino)-7-[2-(2,2-difluoro-acetylamino)-ethoxy]-quinazolin-6-yl}-acrylamide]	5	45	9780	92	523	961	–	–	–	–
N-{2-[6-acryloylamino-4-(4-bromo-2-fluoro-phenylamino)-quinazolin-7-yloxy]-ethyl}-malonic acid [Example 70]	956	–	–	–	279	–	973	9570	365	10000

More lines, main results first:

IC50 [1] [nM]	IC50 ([2]; Homo sapiens, A-431, 72 h) [nM]	IC50 ([3]; Homo sapiens, 72 h) [nM]	IC50 ([5]; Homo sapiens, SK-BR-3, 72 h) [nM]	IC50 [6] [nM]	Compound	IC50 ([4]; Homo sapiens, 96 h) [nM]	IC50 ([2]; 72 hours) [nM]	IC50 ([3]; 72 hours) [nM]	IC50 ([4]; 96 hours) [nM]	IC50 ([5]; 72 hours) [nM]
36	46	10000	53	197	C=CC(=O)Nc1cc2c(Nc3ccc(Br)cc3F)ncnc2cc1OCCNC(=O)N1CCOCC1 [Example 93, morpholine-4-carboxylic acid {2-[6-acryloylamino-4-(4-bromo-2-fluoro-phenylamino)-quinazolin-7-yloxy]-ethyl}-amide]	269	–	–	–	–
1950	2380	2740	10000	658	C=CC(=O)Nc1cc2c(Nc3ccc(Br)cc3F)ncnc2cc1OCCNC(=O)C1CCCN1 (stereo not drawn) [Example 97, pyrrolidine-2-carboxylic acid {2-[6-acryloylamino-4-(4-bromo-2-fluoro-phenylamino)-quinazolin-7-yloxy]-ethyl}-amide]	867	–	–	–	–
18	38	10000	504	165	C=CC(=O)Nc1cc2c(Nc3ccc(Br)cc3F)ncnc2cc1OCCNC(=O)C(C)N (stereo not drawn) [Example 173, N-[7-[2-(2-amino-propionylamino)-ethoxy]-4-(4-bromo-2-fluoro-phenylamino)-quinazolin-6-yl]-acrylamide]	213	–	–	–	–
796	789	5530	987	853	C=CC(=O)Nc1cc2c(Nc3ccc(OCc4cccnc4)c(Cl)c3)ncnc2cc1OCCNC(C)=O [Example 130, N-{7-(2-acetylamino-ethoxy)-4-[3-chloro-4-(pyridin-3-ylmethoxy)-phenylamino]-quinazolin-6-yl}-acrylamide]	964	–	–	–	–
154	365	2500	896	41	C=CC(=O)Nc1cc2c(Nc3ccc(Br)cc3F)ncnc2cc1OCC(C)NC(C)=O (stereo not drawn) [Example 81, N-[7-(2-acetylamino-propoxy)-4-(4-bromo-2-fluoro-phenylamino)-quinazolin-6-yl]-acrylamide]	205	–	–	–	–
698	739	2320	2560	698	C=CC(=O)Nc1cc2c(Nc3ccc(Br)cc3F)ncnc2cc1OCCNC(=O)N1CCNCC1 [Example 94, piperazine-1-carboxylic acid {2-[6-acryloylamino-4-(4-bromo-2-fluoro-phenylamino)-quinazolin-7-yloxy]-ethyl}-amide]	694	–	–	–	–
14	15	725	79	489	C=CC(=O)Nc1cc2c(Nc3ccc(F)c(F)c3F)ncnc2cc1OCCNC(C)=O [Example 118, N-[7-(2-acetylamino-ethoxy)-4-(2,3,4-trifluoro-phenylamino)-quinazolin-6-yl]-acrylamide]	681	–	–	–	–
7	8	2920	76	857	C=CC(=O)Nc1cc2c(Nc3ccc(Br)cc3F)ncnc2cc1OCCNC(=O)CN1CCCCC1 [Example 101, N-{4-(4-bromo-2-fluoro-phenylamino)-7-[2-(2-piperidin-1-yl-acetylamino)-ethoxy]-quinazolin-6-yl}-acrylamide]	964	–	–	–	–
45	48	3590	119	200	C=CC(=O)Nc1cc2c(Nc3ccc(Br)cc3F)ncnc2cc1OCCNC(=O)CN1CCCC1 [Example 107, N-{4-(4-bromo-2-fluoro-phenylamino)-7-[2-(2-pyrrolidin-1-yl-acetylamino)-ethoxy]-quinazolin-6-yl}-acrylamide]	289	–	–	–	–
